Results as given in article PMC6409085, “Three odorant-binding proteins are involved in the behavioral response of Sogatella furcifera to rice plant volatiles” (PeerJ, 2019).
Several values for one entry are separate records, joined by “and”; a condition that tells them apart may be missing. Equal values may be shown once.

How the values were obtained:
S. furcifera adults = experiment: Y-tube olfactometer behavioral trials; assay type: in vivo, Sogatella furcifera; conditions: odorant 50 µL/L vs hexane; adults
Method in brief: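 Single S. furcifera adults (2 days post-emergence, starved 0.5 h) chose between odorant (100 µL of 50 µL/L on filter paper) and hexane control in a glass Y-tube, charcoal-filtered humidified air 300 mL/min per arm, 25 ± 1 °C, 50% RH. Choice scored if insect passed half an arm and stayed >1 min within 10 min; 45 insects per compound, chi-squared test.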

SfurOBP2 = SfurOBP2 (Sogatella furcifera, UniProt V5T759); experiment: biochemical; assay type: binding
Method in brief: (§1)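 K1-NPN came from titrating 2.0 µM protein (50 mM Tris-HCl, pH 7.4) with 1-NPN. Odorants at 2-20 µM then competed against 2.0 µM protein plus 2.0 µM 1-NPN for 2 min, with excitation at 337 nm and emission recorded over 390-490 nm. IC50 values were converted to Ki via Ki = IC50/(1 + [1-NPN]/K1-NPN).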

SfurOBP3 = SfurOBP3 (Sogatella furcifera, UniProt V5T818); experiment: biochemical; assay type: binding; conditions: for Fluorescence competitive binding assay, fluorescence intensity: OBP3, three replicate columns
Method in brief: as §1

SfurOBP1 = SfurOBP1 (Sogatella furcifera, UniProt V5T8N5); experiment: biochemical; assay type: binding; conditions: for Fluorescence competitive binding assay, fluorescence intensity: OBP1, three replicate columns
Method in brief: as §1

SfurOBP11 = SfurOBP11 (Sogatella furcifera, UniProt V5T6E3); experiment: biochemical; assay type: binding
Method in brief: as §1

Sequence of SfurOBP2 (V5T759 entry or part of it): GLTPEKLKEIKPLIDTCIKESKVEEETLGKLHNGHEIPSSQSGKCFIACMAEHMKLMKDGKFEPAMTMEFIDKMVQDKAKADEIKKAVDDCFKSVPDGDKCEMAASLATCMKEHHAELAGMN
Sequence of SfurOBP3 (V5T818 entry or part of it): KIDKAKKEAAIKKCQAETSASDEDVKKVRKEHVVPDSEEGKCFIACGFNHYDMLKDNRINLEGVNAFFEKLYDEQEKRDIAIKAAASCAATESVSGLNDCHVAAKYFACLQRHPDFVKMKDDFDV
Sequence of SfurOBP11 (V5T6E3 entry or part of it): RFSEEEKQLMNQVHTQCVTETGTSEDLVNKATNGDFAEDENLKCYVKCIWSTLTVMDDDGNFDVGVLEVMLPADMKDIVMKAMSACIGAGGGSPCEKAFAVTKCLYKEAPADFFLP
Sequence of SfurOBP1 (V5T8N5 entry or part of it): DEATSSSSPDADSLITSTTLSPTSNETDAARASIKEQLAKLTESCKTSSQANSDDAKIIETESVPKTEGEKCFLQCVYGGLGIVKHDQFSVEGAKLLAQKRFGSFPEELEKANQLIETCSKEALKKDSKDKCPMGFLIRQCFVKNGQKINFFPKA

Structure (SMILES): CC1=CC[C@@H](C(C)(C)O)CC1 [α-terpineol]
- number of insects choosing hexane arm (S. furcifera adults): 14
- number of insects choosing volatilies arm (S. furcifera adults): 11
- number of insects failed (no choice) (S. furcifera adults): 15
- IC50 (SfurOBP2): > 20 µM
- Fluorescence competitive binding assay, OBP2 (raw fluorescence reading) (SfurOBP2; ligand concentration 2 (unit not given), replicate column 1 of 3): 18212
- Fluorescence competitive binding assay, OBP2 (raw fluorescence reading) (SfurOBP2; ligand concentration 2 (unit not given), replicate column 2 of 3): 17771
- Fluorescence competitive binding assay, OBP2 (raw fluorescence reading) (SfurOBP2; ligand concentration 2 (unit not given), replicate column 3 of 3): 19569
- Fluorescence competitive binding assay, OBP2 (raw fluorescence reading) (SfurOBP2; ligand concentration 4 (unit not given), replicate column 1 of 3): 20390
- Fluorescence competitive binding assay, OBP2 (raw fluorescence reading) (SfurOBP2; ligand concentration 4 (unit not given), replicate column 2 of 3): 18924
- Fluorescence competitive binding assay, OBP2 (raw fluorescence reading) (SfurOBP2; ligand concentration 4 (unit not given), replicate column 3 of 3): 19735
- Fluorescence competitive binding assay, OBP2 (raw fluorescence reading) (SfurOBP2; ligand concentration 6 (unit not given), replicate column 1 of 3): 19485
- Fluorescence competitive binding assay, OBP2 (raw fluorescence reading) (SfurOBP2; ligand concentration 6 (unit not given), replicate column 2 of 3): 20387
- Fluorescence competitive binding assay, OBP2 (raw fluorescence reading) (SfurOBP2; ligand concentration 6 (unit not given), replicate column 3 of 3): 20572
- Fluorescence competitive binding assay, OBP2 (raw fluorescence reading) (SfurOBP2; ligand concentration 8 (unit not given), replicate column 1 of 3): 16903
- Fluorescence competitive binding assay, OBP2 (raw fluorescence reading) (SfurOBP2; ligand concentration 8 (unit not given), replicate column 2 of 3): 17555
- Fluorescence competitive binding assay, OBP2 (raw fluorescence reading) (SfurOBP2; ligand concentration 8 (unit not given), replicate column 3 of 3): 17959
- Fluorescence competitive binding assay, OBP2 (raw fluorescence reading) (SfurOBP2; ligand concentration 10 (unit not given), replicate column 1 of 3): 16415
- Fluorescence competitive binding assay, OBP2 (raw fluorescence reading) (SfurOBP2; ligand concentration 10 (unit not given), replicate column 2 of 3): 15491
- Fluorescence competitive binding assay, OBP2 (raw fluorescence reading) (SfurOBP2; ligand concentration 10 (unit not given), replicate column 3 of 3): 17367
- Fluorescence competitive binding assay, OBP2 (raw fluorescence reading) (SfurOBP2; ligand concentration 12 (unit not given), replicate column 1 of 3): 14309
- Fluorescence competitive binding assay, OBP2 (raw fluorescence reading) (SfurOBP2; ligand concentration 12 (unit not given), replicate column 2 of 3): 15826
- Fluorescence competitive binding assay, OBP2 (raw fluorescence reading) (SfurOBP2; ligand concentration 12 (unit not given), replicate column 3 of 3): 15705
- Fluorescence competitive binding assay, OBP2 (raw fluorescence reading) (SfurOBP2; ligand concentration 14 (unit not given), replicate column 1 of 3): 15282
- Fluorescence competitive binding assay, OBP2 (raw fluorescence reading) (SfurOBP2; ligand concentration 14 (unit not given), replicate column 2 of 3): 15181
- Fluorescence competitive binding assay, OBP2 (raw fluorescence reading) (SfurOBP2; ligand concentration 14 (unit not given), replicate column 3 of 3): 14363
- Fluorescence competitive binding assay, OBP2 (raw fluorescence reading) (SfurOBP2; ligand concentration 16 (unit not given), replicate column 1 of 3): 13073
- Fluorescence competitive binding assay, OBP2 (raw fluorescence reading) (SfurOBP2; ligand concentration 16 (unit not given), replicate column 2 of 3): 13018
- Fluorescence competitive binding assay, OBP2 (raw fluorescence reading) (SfurOBP2; ligand concentration 16 (unit not given), replicate column 3 of 3): 13539
- Fluorescence competitive binding assay, OBP2 (raw fluorescence reading) (SfurOBP2; ligand concentration 18 (unit not given), replicate column 1 of 3): 15519
- Fluorescence competitive binding assay, OBP2 (raw fluorescence reading) (SfurOBP2; ligand concentration 18 (unit not given), replicate column 2 of 3): 15960
- Fluorescence competitive binding assay, OBP2 (raw fluorescence reading) (SfurOBP2; ligand concentration 18 (unit not given), replicate column 3 of 3): 15297
- Fluorescence competitive binding assay, OBP2 (raw fluorescence reading) (SfurOBP2; ligand concentration 20 (unit not given), replicate column 1 of 3): 14913
- Fluorescence competitive binding assay, OBP2 (raw fluorescence reading) (SfurOBP2; ligand concentration 20 (unit not given), replicate column 2 of 3): 14580
- Fluorescence competitive binding assay, OBP2 (raw fluorescence reading) (SfurOBP2; ligand concentration 20 (unit not given), replicate column 3 of 3): 12894
- IC50 (SfurOBP3): 13.6 µM
- Fluorescence competitive binding assay, fluorescence intensity (SfurOBP3; ligand concentration 2): 41927 and 42538 and 43146
- Fluorescence competitive binding assay, fluorescence intensity (SfurOBP3; ligand concentration 4): 40833 and 40011 and 41655
- Fluorescence competitive binding assay, fluorescence intensity (SfurOBP3; ligand concentration 6): 42160 and 41392 and 42949
- Fluorescence competitive binding assay, fluorescence intensity (SfurOBP3; ligand concentration 8): 37611 and 37369 and 39854
- Fluorescence competitive binding assay, fluorescence intensity (SfurOBP3; ligand concentration 10): 32220 and 32701 and 33181
- Fluorescence competitive binding assay, fluorescence intensity (SfurOBP3; ligand concentration 12): 30392 and 29567 and 30934
- Fluorescence competitive binding assay, fluorescence intensity (SfurOBP3; ligand concentration 14): 29784 and 30310 and 29247
- Fluorescence competitive binding assay, fluorescence intensity (SfurOBP3; ligand concentration 16): 24410 and 25726 and 27469
- Fluorescence competitive binding assay, fluorescence intensity (SfurOBP3; ligand concentration 18): 26293 and 25033 and 26983
- Fluorescence competitive binding assay, fluorescence intensity (SfurOBP3; ligand concentration 20): 28495 and 26490 and 25496
- binding affinity to SfurOBP3 (in words) (SfurOBP3; SfurOBP3): high binding affinities
- IC50 (SfurOBP1): > 20 µM
- Fluorescence competitive binding assay, fluorescence intensity (SfurOBP1; ligand concentration 2 (μM)): 6377 and 6063 and 6691
- Fluorescence competitive binding assay, fluorescence intensity (SfurOBP1; ligand concentration 4 (μM)): 7679 and 7170 and 7304
- Fluorescence competitive binding assay, fluorescence intensity (SfurOBP1; ligand concentration 6 (μM)): 7149 and 7127 and 7171
- Fluorescence competitive binding assay, fluorescence intensity (SfurOBP1; ligand concentration 8 (μM)): 6956 and 7151 and 7930
- Fluorescence competitive binding assay, fluorescence intensity (SfurOBP1; ligand concentration 10 (μM)): 8380 and 7109 and 7555
- Fluorescence competitive binding assay, fluorescence intensity (SfurOBP1; ligand concentration 12 (μM)): 7012 and 7971 and 7255
- Fluorescence competitive binding assay, fluorescence intensity (SfurOBP1; ligand concentration 14 (μM)): 6581 and 7020 and 7628
- Fluorescence competitive binding assay, fluorescence intensity (SfurOBP1; ligand concentration 16 (μM)): 6623 and 7749 and 6480
- Fluorescence competitive binding assay, fluorescence intensity (SfurOBP1; ligand concentration 18 (μM)): 7107 and 7324 and 6847
- Fluorescence competitive binding assay, fluorescence intensity (SfurOBP1; ligand concentration 20 (μM)): 6572 and 7380 and 8412
- IC50 (SfurOBP11): > 20 µM
- Fluorescence intensity, fluorescence competitive binding assay, OBP11 (SfurOBP11; ligand concentration 2, replicate 1): 29252
- Fluorescence intensity, fluorescence competitive binding assay, OBP11 (SfurOBP11; ligand concentration 2, replicate 2): 30685
- Fluorescence intensity, fluorescence competitive binding assay, OBP11 (SfurOBP11; ligand concentration 2, replicate 3): 32118
- Fluorescence intensity, fluorescence competitive binding assay, OBP11 (SfurOBP11; ligand concentration 4, replicate 1): 28869
- Fluorescence intensity, fluorescence competitive binding assay, OBP11 (SfurOBP11; ligand concentration 4, replicate 2): 31369
- Fluorescence intensity, fluorescence competitive binding assay, OBP11 (SfurOBP11; ligand concentration 4, replicate 3): 30942
- Fluorescence intensity, fluorescence competitive binding assay, OBP11 (SfurOBP11; ligand concentration 6, replicate 1): 28105
- Fluorescence intensity, fluorescence competitive binding assay, OBP11 (SfurOBP11; ligand concentration 6, replicate 2): 27021
- Fluorescence intensity, fluorescence competitive binding assay, OBP11 (SfurOBP11; ligand concentration 6, replicate 3): 30576
- Fluorescence intensity, fluorescence competitive binding assay, OBP11 (SfurOBP11; ligand concentration 8, replicate 1): 25898
- Fluorescence intensity, fluorescence competitive binding assay, OBP11 (SfurOBP11; ligand concentration 8, replicate 2): 26158
- Fluorescence intensity, fluorescence competitive binding assay, OBP11 (SfurOBP11; ligand concentration 8, replicate 3): 28412
- Fluorescence intensity, fluorescence competitive binding assay, OBP11 (SfurOBP11; ligand concentration 10, replicate 1): 27115
- Fluorescence intensity, fluorescence competitive binding assay, OBP11 (SfurOBP11; ligand concentration 10, replicate 2): 24221
- Fluorescence intensity, fluorescence competitive binding assay, OBP11 (SfurOBP11; ligand concentration 10, replicate 3): 26039
- Fluorescence intensity, fluorescence competitive binding assay, OBP11 (SfurOBP11; ligand concentration 12, replicate 1): 23153
- Fluorescence intensity, fluorescence competitive binding assay, OBP11 (SfurOBP11; ligand concentration 12, replicate 2): 22497
- Fluorescence intensity, fluorescence competitive binding assay, OBP11 (SfurOBP11; ligand concentration 12, replicate 3): 22406
- Fluorescence intensity, fluorescence competitive binding assay, OBP11 (SfurOBP11; ligand concentration 14, replicate 1): 22371
- Fluorescence intensity, fluorescence competitive binding assay, OBP11 (SfurOBP11; ligand concentration 14, replicate 2): 22254
- Fluorescence intensity, fluorescence competitive binding assay, OBP11 (SfurOBP11; ligand concentration 14, replicate 3): 22487
- Fluorescence intensity, fluorescence competitive binding assay, OBP11 (SfurOBP11; ligand concentration 16, replicate 1): 19119
- Fluorescence intensity, fluorescence competitive binding assay, OBP11 (SfurOBP11; ligand concentration 16, replicate 2): 17607
- Fluorescence intensity, fluorescence competitive binding assay, OBP11 (SfurOBP11; ligand concentration 16, replicate 3): 18419
- Fluorescence intensity, fluorescence competitive binding assay, OBP11 (SfurOBP11; ligand concentration 18, replicate 1): 25701
- Fluorescence intensity, fluorescence competitive binding assay, OBP11 (SfurOBP11; ligand concentration 18, replicate 2): 25030
- Fluorescence intensity, fluorescence competitive binding assay, OBP11 (SfurOBP11; ligand concentration 18, replicate 3): 24854
- Fluorescence intensity, fluorescence competitive binding assay, OBP11 (SfurOBP11; ligand concentration 20, replicate 1): 25268
- Fluorescence intensity, fluorescence competitive binding assay, OBP11 (SfurOBP11; ligand concentration 20, replicate 2): 25350
- Fluorescence intensity, fluorescence competitive binding assay, OBP11 (SfurOBP11; ligand concentration 20, replicate 3): 25312
